# Bridge positions count the residues as written; N and C are the ends. Square brackets hold non-standard residues; d marks the D form. Peptide text beside a SMILES is read from it. * marks the point of attachment. N(3-phenylpropyl)Gly = O=C(O)CNCCCc1ccccc1; Gly(NCH2CH2Ph) = O=C(O)CNCCc1ccccc1; Gly(N-2-aminoethyl) = NCCNCC(=O)O; Gly(N(CH2)3NH2) = NCCCNCC(=O)O; Gly(N-cPent) = O=C(O)CNC1CCCC1; Heptanoyl = CCCCCCC(=O)*; Nphe = O=C(O)CNCc1ccccc1; Octanoyl = CCCCCCCC(=O)*; Dab = NCC[C@H](N)C(=O)O; NPrGly = CCCNCC(=O)O
# Assays:
# [1] = Dansyl-polymyxin (DsPMB) displacement assay; format: binding, Pseudomonas aeruginosa; conditions: 37 °C, 2.5 µM DsPMB, LPS 3 μg/mL, emission 485 nm; mean ± SD, n = 3
# Method: 14. Dansyl-Polymyxin (DsPMB) Displacement Assay
# Saturation determination. Dansyl-polymyxin (DsPMB) in water (1.5 mg/mL) and lyophilized lipopolysaccharides from P. aeruginosa were obtained from Merck. LPS were prepared as a 1 mg/mL stock solution in mQ water and stored at 4 °C. The fluorescence saturation of DsPMB with LPS was first determined, by titration (0.25 μM increments, up to 5 μM) of the DsPMB into a 3 μg/mL of LPS (10 mM Tris, 10 mM NaCl buffer, pH 7.4), at 37 °C. The fluorescence was recorded with a Jasco spectrofluorometer FP-8300, with the excitation at λex = 340 nm (5 nm slit width) and recorded from 420 to 650 nm. The fluorescence was recorded two minutes after each addition. Saturation was graphically determined, at a concentration of D sPMB ≈ 2.5 μM (λem = 485 nm). Each measurement was determined in triplicates.
# Displacement assay. The displacement effect of the various peptides was determined by measuring the reduction of fluorescence intensity, at 37 °C. Initially, DsPMB (2.5 μM) was mixed with LPS (3 μg/mL) and let it react for 15 minutes before recording the fluorescence […]
# intensity (at λem = 485 nm and λex = 340 nm). Then, the peptide was titrated (1 μM increments, up to 10 μM) into the DsPMB/LPS mixture, and the fluorescence was recorded two minutes after the compound addition. The decrease in fluorescence was interpreted as the displacement of DsPMB from the LPS due to competitive binding by the peptide.[12,13] Specific Fluorescence Enhancement
# Figure S8. Fluorescence emission of dansyl-polymyxin (DsPMB) in presence of lipopolysaccharide (LPS) extracted from P. aeruginosa (3 µg/mL) in TRIS/NaCl buffer (10 mM, pH 7.4). The fluorophore was excited at 340 nm (5 nm slit width) and recorded from 420 to 650 nm. The data represent mean value from three measurement. Specific fluorescence represents the emission of DsPMB with the non-specific fluorescence (no LPS) deduced.
# [2] = Lipid vesicle (carboxyfluorescein) leakage assay; conditions: 10 µg mL^−1 compound, 10 mM Tris, 107 mM NaCl, pH 7.4, leakage observed after 220 s
# Method: Figure S4. Cytotoxicity of selected compounds against HK-2 cells. The cells were treated with the compound at the desired concentration for 24 h and the viability was determined with an Alamar blue assay. Data of three experiments performed in triplicates were pooled and represented as barplots.
# 10. Lipid Vesicle Leakage Assay
# 5(6)-carboxyfluorescein (CF) was purchased from Sigma Aldrich. Egg Yolk Phosphatidylcholine (EYPC), Egg Yolk Phosphatidylglycerol (EYPG) and a Mini-Extruder were purchased from Avanti Polar Lipids.
# Vesicles preparation. Egg yolk PC or egg yolk PG thin lipid layers were prepared by evaporating a solution of 100 mg EYPC or EYPG in 4 mL MeOH/CHCl3 (1:1) on a rotary evaporator at room temperature and then dried in vacuo overnight. The resulting film was then hydrated with 2 mL CF buffer (50 mM CF, 10 mM TRIS, 10 mM NaCl, pH 7.4) for 30 min, subjected to freeze-thaw cycles (7×) and extrusion (15×) through a polycarbonate membrane (pore size 100 nm). Extra vesicular components were removed by gel filtration (Sephadex G-50) with 10 mM TRIS, 107 mM NaCl, pH 7.4 buffer. Final conditions: ca. 2.5 mM EYPC or EYPG; inside: 50 mM CF, 10 mM TRIS, 10 mM NaCl, pH 7.4 buffer; outside: 10 mM TRIS, […]
# Vesicle leakage assay. EYPC or EYPG vesicle stock solutions (37.5 μL) were diluted to 3000 μL with a buffer (10 mM TRIS, 107 mM NaCl, pH 7.4) in a thermostated fluorescence cuvette (25 °C) and gently stirred (final lipid concentration ca. 10 μg/mL for both EYPG and EYPC).
# The desired volume of peptide (1 or 20 mg/mL stock in MilliQ water) was added at t = 45 s to obtain final concentrations of 10 and 50 or 200 μg/mL, and CF efflux was monitored at λem 517 nm (λex 492 nm) as a function of time. Finally, 30 μL of 1.2% Triton X-100 was added to the cuvette (0.012% final concentration) at t = 240 s to reach the maximum intensity.
# Fluorescence intensities were then normalized to the maximal emission intensity using I(t) = (It − I0)⁄(I∞ − I0) where I0 = It at peptide addition and I∞ = It at saturation of […]
SMILES,Binding to lipopolysaccharide (dansyl-PMB fluorescence displacement) [1],"Membrane disruptive activity, fluorescein leakage from EYPG and EYPC vesicles [2]"
CCCCCCCC(=O)N(CCc1ccccc1)CC(=O)N[C@@H](CCCCN)C(=O)N[C@@H](CC(N)=O)C(=O)N[C@H]1CCNC(=O)[C@H](CCCCN)NC(=O)CN(CCCN)C(=O)[C@H](CCCCN)NC(=O)CN(CCC)C(=O)[C@H](CCCCN)NC1=O [EB12] (Octanoyl-[Gly(NCH2CH2Ph)]KN[Dab]K[NPrGly]K[Gly(N(CH2)3NH2)]K; lactam 4-C),to a similar extent as PMB2 itself,low membrane disruptive activity
CCCCCCCC(=O)N[C@@H](CCCCN)C(=O)N(CC(=O)N[C@@H](CCCCN)C(=O)N[C@H]1CCNC(=O)[C@H](CCCCN)NC(=O)CN(C2CCCC2)C(=O)CN(CCN)C(=O)[C@H](CCCCN)NC(=O)[C@H](CC(N)=O)NC1=O)Cc1ccccc1 [EB21] (Octanoyl-K[Nphe]K[Dab]NK[Gly(N-2-aminoethyl)][Gly(N-cPent)]K; lactam 4-C),to a similar extent as PMB2 itself,low membrane disruptive activity
CCCCCCC(=O)N[C@H](C(=O)N(CCN)CC(=O)N(CCCc1ccccc1)CC(=O)N[C@H]1CCNC(=O)[C@H](CCCCN)NC(=O)CN(CCCN)C(=O)[C@H](CCCCN)NC(=O)CNC(=O)[C@H](CCCCN)NC1=O)C(C)C [EB13] (Heptanoyl-V[Gly(N-2-aminoethyl)][N(3-phenylpropyl)Gly][Dab]KGK[Gly(N(CH2)3NH2)]K; lactam 4-C),to a similar extent as PMB2 itself,low membrane disruptive activity

# From article PMC12124432, “Antimicrobial Peptide‐Peptoid Macrocycles from the Polymyxin B2 Chemical Space” (Angewandte Chemie (International Ed. in English), 2025)
